Data reported in patent publication US12157741B2, “Macrocyclic inhibitors of DYRK1A” (DANA-FARBER CANCER INSTITUTE, INC., priority 2018, dated 2024).
Where two headings read alike, the source gives them in different places.

Assays:
Assay type in all cases: binding
[1] = target: various enzymes (Homo sapiens, UniProt Q8TBX8); settings: compound 1 uM
Description: (§1) Ambit profiling was conducted in accordance with the manufacturer's instructions.

[2] = target: T1, various enzymes (Homo sapiens, UniProt Q96L34); settings: compound 1 uM
T1 sequence (Q96L34 1-752): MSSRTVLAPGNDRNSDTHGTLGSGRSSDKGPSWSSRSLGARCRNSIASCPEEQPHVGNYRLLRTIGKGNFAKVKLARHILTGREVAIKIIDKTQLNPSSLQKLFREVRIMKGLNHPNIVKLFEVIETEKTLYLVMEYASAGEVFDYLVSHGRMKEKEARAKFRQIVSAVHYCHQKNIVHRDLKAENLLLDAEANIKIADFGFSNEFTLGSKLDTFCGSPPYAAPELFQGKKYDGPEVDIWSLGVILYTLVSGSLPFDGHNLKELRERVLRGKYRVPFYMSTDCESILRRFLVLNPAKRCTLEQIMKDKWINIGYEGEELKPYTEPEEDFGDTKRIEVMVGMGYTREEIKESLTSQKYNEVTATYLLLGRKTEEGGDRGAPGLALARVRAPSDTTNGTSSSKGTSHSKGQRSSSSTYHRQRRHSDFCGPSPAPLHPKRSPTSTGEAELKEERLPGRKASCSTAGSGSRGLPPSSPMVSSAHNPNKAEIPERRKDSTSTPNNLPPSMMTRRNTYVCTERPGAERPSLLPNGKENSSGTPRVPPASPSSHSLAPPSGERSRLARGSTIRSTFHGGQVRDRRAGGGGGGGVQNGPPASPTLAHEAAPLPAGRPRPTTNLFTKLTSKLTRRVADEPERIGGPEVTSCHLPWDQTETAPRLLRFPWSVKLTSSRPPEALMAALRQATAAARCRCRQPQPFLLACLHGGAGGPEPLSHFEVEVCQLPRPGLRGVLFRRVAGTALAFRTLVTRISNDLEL
Description: as §1

[3] = target: various enzymes (Homo sapiens, UniProt P42336, H1047Y)
Description: as §1

[4] = target: various enzymes (Homo sapiens, UniProt Q13554); settings: compound 1 uM
Description: as §1

[5] = target: various enzymes (Homo sapiens, UniProt Q9BX84); settings: compound 1 uM
Description: as §1

[6] = target: various enzymes (Homo sapiens, UniProt Q14680); settings: compound 1 uM
Description: as §1

[7] = target: various enzymes (Homo sapiens, UniProt Q8WXR4); settings: compound 1 uM
Description: as §1

[8] = target: various enzymes (Homo sapiens, UniProt P07949, V804M)
Description: as §1

[9] = target: various enzymes (Homo sapiens, UniProt P49336); settings: compound 1 uM
Description: as §1

[10] = target: various enzymes (Homo sapiens, UniProt P24941); settings: compound 1 uM
Description: as §1

[11] = target: various enzymes (Homo sapiens, UniProt Q5S007, G2019S)
Description: as §1

[12] = target: various enzymes (Homo sapiens, UniProt Q06187); settings: compound 1 uM
Description: as §1

[13] = target: T2, various enzymes (Homo sapiens, UniProt Q9H093); settings: compound 1 uM
T2 sequence (Q9H093 1-628): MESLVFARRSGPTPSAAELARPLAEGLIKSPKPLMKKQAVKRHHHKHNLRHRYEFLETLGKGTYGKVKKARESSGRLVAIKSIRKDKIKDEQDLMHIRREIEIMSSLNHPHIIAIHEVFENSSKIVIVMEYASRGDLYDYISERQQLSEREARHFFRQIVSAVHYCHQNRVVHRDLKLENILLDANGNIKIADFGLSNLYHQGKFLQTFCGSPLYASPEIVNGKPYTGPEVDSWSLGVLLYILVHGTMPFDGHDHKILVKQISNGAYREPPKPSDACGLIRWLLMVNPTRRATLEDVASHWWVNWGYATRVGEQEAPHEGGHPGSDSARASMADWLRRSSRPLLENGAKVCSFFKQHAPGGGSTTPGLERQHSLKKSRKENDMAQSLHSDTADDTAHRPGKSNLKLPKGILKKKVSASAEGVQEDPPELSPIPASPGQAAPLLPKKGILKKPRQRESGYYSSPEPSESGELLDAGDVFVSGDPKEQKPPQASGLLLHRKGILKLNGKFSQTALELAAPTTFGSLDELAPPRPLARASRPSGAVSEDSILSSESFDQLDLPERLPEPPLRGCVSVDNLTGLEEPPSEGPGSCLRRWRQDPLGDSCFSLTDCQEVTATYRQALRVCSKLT
Description: as §1

[14] = target: various enzymes (Plasmodium falciparum, UniProt P62344)
Description: as §1

[15] = target: various enzymes (Homo sapiens, UniProt O96017); settings: compound 1 uM
Description: as §1

[16] = target: various enzymes (Homo sapiens, UniProt P22455); settings: compound 1 uM
Description: as §1

[17] = target: various enzymes (Homo sapiens, UniProt O14976); settings: compound 1 uM
Description: as §1

[18] = target: various enzymes (Plasmodium falciparum, UniProt P61075)
Description: as §1

[19] = target: various enzymes (Homo sapiens, UniProt P00519, M351T)
Description: as §1

[20] = target: various enzymes (Homo sapiens, UniProt P07949, V804L)
Description: as §1

[21] = target: various enzymes (Homo sapiens, UniProt P49759); settings: compound 1 uM
Description: as §1

[22] = target: various enzymes (Homo sapiens, UniProt Q9H0K1); settings: compound 1 uM
Description: as §1

[23] = target: various enzymes (Homo sapiens, UniProt Q8N5S9); settings: compound 1 uM
Description: as §1

[24] = target: various enzymes (Homo sapiens, UniProt Q15835); settings: compound 1 uM
Description: as §1

[25] = target: T3, various enzymes (Homo sapiens, UniProt P36888, F691L, form not given)
T3 construct: other: FLT3(ITD, F691L); 1 uM; other: compound 1 uM
Description: as §1

various enzymes (Homo sapiens, UniProt P42336, H1047Y), sequence (P42336 whole entry H1047Y): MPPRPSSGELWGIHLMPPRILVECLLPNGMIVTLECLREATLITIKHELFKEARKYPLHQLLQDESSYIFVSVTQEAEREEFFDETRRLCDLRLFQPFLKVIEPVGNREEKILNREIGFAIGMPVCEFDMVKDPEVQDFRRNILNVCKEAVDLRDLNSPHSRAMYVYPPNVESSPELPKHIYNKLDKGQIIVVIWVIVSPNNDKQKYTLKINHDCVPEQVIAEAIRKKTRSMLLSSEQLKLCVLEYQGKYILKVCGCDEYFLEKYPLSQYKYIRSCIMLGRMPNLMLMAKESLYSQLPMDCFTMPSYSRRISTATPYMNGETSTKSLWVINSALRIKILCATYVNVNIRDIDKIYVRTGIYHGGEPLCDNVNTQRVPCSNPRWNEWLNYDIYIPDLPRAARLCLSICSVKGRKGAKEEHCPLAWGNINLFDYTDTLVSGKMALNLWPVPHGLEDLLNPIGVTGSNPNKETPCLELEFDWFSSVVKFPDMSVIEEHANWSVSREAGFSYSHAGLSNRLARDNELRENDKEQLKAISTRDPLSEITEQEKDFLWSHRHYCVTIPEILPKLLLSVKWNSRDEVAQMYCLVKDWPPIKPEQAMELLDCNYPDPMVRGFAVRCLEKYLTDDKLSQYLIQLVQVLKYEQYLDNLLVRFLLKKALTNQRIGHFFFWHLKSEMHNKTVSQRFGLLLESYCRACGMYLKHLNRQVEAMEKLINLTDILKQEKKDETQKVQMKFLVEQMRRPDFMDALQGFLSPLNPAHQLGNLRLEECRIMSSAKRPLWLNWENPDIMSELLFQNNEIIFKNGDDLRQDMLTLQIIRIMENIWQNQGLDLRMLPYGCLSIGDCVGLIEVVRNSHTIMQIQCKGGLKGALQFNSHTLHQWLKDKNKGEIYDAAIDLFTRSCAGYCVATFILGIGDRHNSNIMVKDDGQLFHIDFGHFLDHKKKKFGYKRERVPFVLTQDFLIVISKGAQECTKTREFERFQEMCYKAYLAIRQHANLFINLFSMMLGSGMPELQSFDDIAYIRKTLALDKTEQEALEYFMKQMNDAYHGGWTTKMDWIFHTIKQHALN
various enzymes (Homo sapiens, UniProt P49336), sequence (P49336 whole entry): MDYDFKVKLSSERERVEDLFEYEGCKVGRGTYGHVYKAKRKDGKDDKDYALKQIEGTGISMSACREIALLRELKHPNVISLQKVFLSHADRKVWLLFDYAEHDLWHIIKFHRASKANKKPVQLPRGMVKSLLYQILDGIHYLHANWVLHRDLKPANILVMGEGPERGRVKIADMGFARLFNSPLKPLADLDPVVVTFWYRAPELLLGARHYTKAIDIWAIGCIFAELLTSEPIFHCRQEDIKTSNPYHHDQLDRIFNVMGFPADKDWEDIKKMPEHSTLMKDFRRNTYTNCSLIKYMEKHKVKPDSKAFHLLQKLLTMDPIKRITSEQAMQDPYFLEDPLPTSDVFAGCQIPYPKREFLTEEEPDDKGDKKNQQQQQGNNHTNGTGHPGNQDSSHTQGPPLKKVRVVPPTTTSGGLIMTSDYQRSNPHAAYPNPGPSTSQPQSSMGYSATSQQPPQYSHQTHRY
various enzymes (Homo sapiens, UniProt Q9H0K1), sequence (Q9H0K1 whole entry): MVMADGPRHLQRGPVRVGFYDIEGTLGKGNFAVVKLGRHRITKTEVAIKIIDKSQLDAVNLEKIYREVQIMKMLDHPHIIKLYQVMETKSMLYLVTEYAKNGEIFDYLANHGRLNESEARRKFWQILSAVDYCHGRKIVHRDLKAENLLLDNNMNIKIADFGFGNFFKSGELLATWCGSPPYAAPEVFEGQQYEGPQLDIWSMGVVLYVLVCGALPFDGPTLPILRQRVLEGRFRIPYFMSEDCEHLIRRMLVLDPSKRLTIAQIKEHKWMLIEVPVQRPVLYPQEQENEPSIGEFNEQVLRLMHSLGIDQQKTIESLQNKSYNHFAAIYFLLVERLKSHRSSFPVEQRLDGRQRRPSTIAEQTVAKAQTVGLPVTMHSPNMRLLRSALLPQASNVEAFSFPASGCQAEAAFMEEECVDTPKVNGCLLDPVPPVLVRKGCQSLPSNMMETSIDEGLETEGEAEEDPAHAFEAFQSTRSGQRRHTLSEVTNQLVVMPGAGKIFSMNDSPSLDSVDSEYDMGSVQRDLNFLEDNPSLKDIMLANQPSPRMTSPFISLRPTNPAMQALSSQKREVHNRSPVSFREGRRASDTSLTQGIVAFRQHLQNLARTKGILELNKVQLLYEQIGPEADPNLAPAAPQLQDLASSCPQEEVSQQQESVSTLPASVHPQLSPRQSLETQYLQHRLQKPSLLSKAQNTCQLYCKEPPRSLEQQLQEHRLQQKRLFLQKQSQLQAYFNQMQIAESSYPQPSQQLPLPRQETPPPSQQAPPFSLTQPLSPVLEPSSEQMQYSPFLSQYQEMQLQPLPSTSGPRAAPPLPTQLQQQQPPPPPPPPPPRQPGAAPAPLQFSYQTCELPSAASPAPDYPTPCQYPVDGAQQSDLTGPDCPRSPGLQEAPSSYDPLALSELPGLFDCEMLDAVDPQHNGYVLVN
various enzymes (Homo sapiens, UniProt P49759), sequence (P49759 whole entry): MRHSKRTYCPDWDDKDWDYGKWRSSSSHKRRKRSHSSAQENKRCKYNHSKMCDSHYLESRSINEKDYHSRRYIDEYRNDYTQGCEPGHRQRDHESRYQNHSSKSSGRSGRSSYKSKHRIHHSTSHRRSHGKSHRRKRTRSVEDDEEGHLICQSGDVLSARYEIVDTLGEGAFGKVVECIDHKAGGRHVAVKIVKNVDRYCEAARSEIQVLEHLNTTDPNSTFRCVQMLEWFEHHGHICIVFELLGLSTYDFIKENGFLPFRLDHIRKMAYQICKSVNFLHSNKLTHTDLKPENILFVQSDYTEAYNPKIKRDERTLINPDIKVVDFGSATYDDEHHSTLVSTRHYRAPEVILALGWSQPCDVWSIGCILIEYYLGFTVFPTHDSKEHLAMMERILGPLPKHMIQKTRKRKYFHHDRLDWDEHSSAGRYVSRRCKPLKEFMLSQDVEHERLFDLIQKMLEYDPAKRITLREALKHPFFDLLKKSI
various enzymes (Homo sapiens, UniProt P22455), sequence (P22455 22-802): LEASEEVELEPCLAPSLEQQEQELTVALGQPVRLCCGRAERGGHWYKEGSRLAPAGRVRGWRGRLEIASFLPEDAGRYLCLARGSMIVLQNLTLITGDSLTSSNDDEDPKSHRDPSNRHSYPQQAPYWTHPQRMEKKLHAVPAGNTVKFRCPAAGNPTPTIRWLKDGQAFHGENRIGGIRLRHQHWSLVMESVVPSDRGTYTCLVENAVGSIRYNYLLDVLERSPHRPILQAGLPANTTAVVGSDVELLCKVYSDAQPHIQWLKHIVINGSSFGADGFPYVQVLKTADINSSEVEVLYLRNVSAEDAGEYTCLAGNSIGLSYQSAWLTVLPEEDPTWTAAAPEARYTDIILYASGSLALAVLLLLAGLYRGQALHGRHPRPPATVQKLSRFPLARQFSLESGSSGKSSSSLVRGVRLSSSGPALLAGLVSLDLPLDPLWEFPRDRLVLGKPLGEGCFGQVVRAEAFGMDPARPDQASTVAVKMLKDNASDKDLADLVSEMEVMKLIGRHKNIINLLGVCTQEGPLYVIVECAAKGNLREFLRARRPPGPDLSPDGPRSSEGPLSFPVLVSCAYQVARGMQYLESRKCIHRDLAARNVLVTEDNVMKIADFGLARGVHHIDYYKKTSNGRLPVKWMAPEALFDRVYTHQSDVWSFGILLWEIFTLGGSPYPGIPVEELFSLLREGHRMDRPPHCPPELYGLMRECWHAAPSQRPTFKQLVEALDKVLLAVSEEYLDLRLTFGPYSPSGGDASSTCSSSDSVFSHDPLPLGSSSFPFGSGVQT
various enzymes (Homo sapiens, UniProt O14976), sequence (O14976 whole entry): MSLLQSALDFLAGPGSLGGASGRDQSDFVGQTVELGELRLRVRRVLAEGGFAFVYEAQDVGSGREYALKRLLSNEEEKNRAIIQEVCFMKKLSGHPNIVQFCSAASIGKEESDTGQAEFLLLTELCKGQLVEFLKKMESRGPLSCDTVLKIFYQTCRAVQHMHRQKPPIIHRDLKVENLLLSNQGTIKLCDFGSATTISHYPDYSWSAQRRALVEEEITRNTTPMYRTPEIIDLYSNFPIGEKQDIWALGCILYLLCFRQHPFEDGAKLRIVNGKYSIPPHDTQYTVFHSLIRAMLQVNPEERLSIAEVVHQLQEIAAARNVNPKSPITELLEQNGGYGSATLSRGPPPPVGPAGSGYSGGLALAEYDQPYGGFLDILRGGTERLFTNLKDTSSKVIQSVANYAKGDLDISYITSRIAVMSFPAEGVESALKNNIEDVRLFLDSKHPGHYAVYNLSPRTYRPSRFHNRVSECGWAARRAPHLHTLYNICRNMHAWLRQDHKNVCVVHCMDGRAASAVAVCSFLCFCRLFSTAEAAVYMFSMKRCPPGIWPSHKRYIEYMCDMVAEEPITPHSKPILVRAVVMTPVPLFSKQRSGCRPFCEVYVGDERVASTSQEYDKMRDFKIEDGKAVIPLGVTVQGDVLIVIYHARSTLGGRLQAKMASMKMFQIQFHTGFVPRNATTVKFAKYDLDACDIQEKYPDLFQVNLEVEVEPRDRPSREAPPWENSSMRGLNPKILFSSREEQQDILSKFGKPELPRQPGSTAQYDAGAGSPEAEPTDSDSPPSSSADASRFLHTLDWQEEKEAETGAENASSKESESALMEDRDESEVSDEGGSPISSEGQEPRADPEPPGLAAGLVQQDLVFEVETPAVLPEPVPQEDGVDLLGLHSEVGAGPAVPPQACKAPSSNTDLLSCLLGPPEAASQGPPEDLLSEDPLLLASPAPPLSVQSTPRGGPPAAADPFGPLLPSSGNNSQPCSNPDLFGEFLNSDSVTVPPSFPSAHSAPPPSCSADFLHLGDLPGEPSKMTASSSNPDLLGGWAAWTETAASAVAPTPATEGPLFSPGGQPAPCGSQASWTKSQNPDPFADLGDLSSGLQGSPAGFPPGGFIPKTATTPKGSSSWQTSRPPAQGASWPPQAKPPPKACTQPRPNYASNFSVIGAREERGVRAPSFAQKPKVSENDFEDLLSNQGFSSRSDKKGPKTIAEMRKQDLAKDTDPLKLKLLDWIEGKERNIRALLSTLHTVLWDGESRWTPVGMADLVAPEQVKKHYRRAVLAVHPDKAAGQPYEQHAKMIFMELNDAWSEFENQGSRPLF

| Compound | Ambit profiling: PIP5K2C [1] | Ambit profiling: MARK4 [2] | Ambit profiling: CAMK2B [4] | Ambit profiling: TRPM6 [5] | Ambit profiling: MELK [6] | Ambit profiling: MYO3B [7] | Ambit profiling: CDK8 [9] | Ambit profiling: CDK2 [10] | Ambit profiling: BTK [12] | Ambit profiling: SNARK [13] | Ambit profiling: CHEK2 [15] | Ambit profiling: FGFR4 [16] | Ambit profiling: GAK [17] | Ambit profiling: CLK1 [21] | Ambit profiling: SIK2 [22] | Ambit profiling: CAMKK1 [23] | Ambit profiling: GRK1 [24] | other results |
| --- | --- | --- | --- | --- | --- | --- | --- | --- | --- | --- | --- | --- | --- | --- | --- | --- | --- | --- |
| CC(C)N1Cc2nn(C)cc2-c2cnc3[nH]cc(c3c2)-c2cn(nc2C(F)(F)F)CCCC1=O [Compound 45, (Z)-5-isopropyl-31-methyl-13-(trifluoromethyl)-11H,21H,31H-5-aza-2(3,5)-pyrrolo[2,3-b]pyridina-1(4,1),3(4,3)-dipyrazolacyclononaphan-6-one] | 100 | 28 | 65 | 83 | 0.25 | 6.7 | 100 | 35 | 55 | 14 | 82 | 85 | 5.7 | 9.9 | 27 | 3.6 | 17 | Ambit profiling: PIK3CA(H1047Y) ([3]; compound 1 uM): 84; Ambit profiling: RET(V804M) ([8]; compound 1 uM): 8.2; Ambit profiling: LRRK2(G2019S) ([11]; compound 1 uM): 53; Ambit profiling: PFCDPK1(P. falciparum) ([14]; compound 1 uM): 2.8; Ambit profiling: PFPK5(P. falciparum) ([18]; compound 1 uM): 82; Ambit profiling: ABL1(M351T)-phosphorylated ([19]; compound 1 uM): 19; Ambit profiling: RET(V804L) ([20]; compound 1 uM): 10; Ambit profiling: FLT3(ITD, F691L) ([25]; compound 1 uM): 0 |
| COc1c2c(nn1C)CN(C(C)C)C(=O)CCCn1cc(c(C(F)(F)F)n1)-c1c[nH]c3ncc-2cc13 [Compound 50, (Z)-5-isopropyl-35-methoxy-31-methyl-13-(trifluoromethyl)-11H,21H,31H-5-aza-2(3,5)-pyrrolo[2,3-b]pyridina-1(4,1),3(4,3)-dipyrazolacyclononaphan-6-one] | 20 | 55 | 46 | 100 | 11 | 9 | 67 | 62 | 56 | 47 | 80 | 79 | 4 | 18 | 32 | 8 | 44 | Ambit profiling: PIK3CA(H1047Y) [3]: 100; Ambit profiling: RET(V804M) [8]: 6; Ambit profiling: LRRK2(G2019S) [11]: 27; Ambit profiling: PFCDPK1(P. falciparum) [14]: 24; Ambit profiling: PFPK5(P. falciparum) [18]: 79; Ambit profiling: ABL1(M351T)-phosphorylated [19]: 4.1; Ambit profiling: RET(V804L) [20]: 18; Ambit profiling: FLT3(ITD, F691L) [25]: 0 |
